How the values were obtained:
Assay type in all cases: in vivo, human
erythropoietin (EPO) = assay: placebo-controlled double-blind study: EPO concentration by EPO ELISA kit
Experimental: (§1) The placebo-controlled double-blind study was performed with healthy, normotonic male non-smoking subjects. The subjects had not taken alcohol, caffeine, or any medication at least during the last 24 hours prior to the study. Also, they had not been engaged in extensive physical exercise for at least 12 hours prior to the study. Twenty-eight subjects were recruited into the study and randomized for the treatment with NAC or placebo. NAC (200 mg capsules) or placebo were administered in three doses of 600 mg per day at 8.00 a.m., 4.00 p.m. and 11.00 p.m. The plasma concentrations of acid soluble thiol (mainly cysteine) and cystine (cysteine disulfide) were determined in the cubital venous blood by a photometric assay and by the amino acid analyzer, respectively. […] The EPO concentration in serum was determined by the help of a commercial EPO ELISA kit.

[1] = placebo-controlled double-blind study: plasma acid soluble thiol and thiol/disulfide redox status; settings: healthy male subjects, NAC three doses of 600 mg per day, vs placebo-treated group
Experimental: as §1

oxygen sensors = assay: placebo-controlled double-blind study: isocapnic hypoxic ventilatory response
Experimental: The placebo-controlled double-blind study was performed with healthy, normotonic male non-smoking subjects. The subjects had not taken alcohol, caffeine, or any medication at least during the last 24 hours prior to the study. Also, they had not been engaged in extensive physical exercise for at least 12 hours prior to the study. Twenty-eight subjects were recruited into the study and randomized for the treatment with NAC or placebo. NAC (200 mg capsules) or placebo were administered in three doses of 600 mg per day at 8.00 a.m., 4.00 p.m. and 11.00 p.m. In addition, the hypoxic ventilatory response of the subjects was quantitatively determined. The ventilatory activity was determined under two different experimental conditions using an equipment of oxychon-beta. The first measurement, the so-called “isocapnic hypoxic ventilatory response” (isocapnic HVR), was tested under normoxic conditions, i.e., under conditions of normal oxygen concentration and constant carbon dioxide concentration. The second measurement, the so-called poikilocapnic hypoxic ventilatory response (poikilocapnic HVR), was determined under normobaric conditions in a hypoxia chamber with a constant FiO2 of 12%. The term “poikilocapnic” describes study conditions characterized by a variable carbon dioxide concentration in the expiratory air, whereas the term “isocapnic” refers to conditions with a constant carbon dioxide concentration.

[2] = summary statement of the placebo-controlled double-blind study

**Q.** Which “plasma EPO concentration after exposure to the hypoxia chamber (Eh), relative change” value (erythropoietin (EPO); 2 hrs after the 6-hr-exposure to the hypoxia chamber, vs placebo-treated group, P<0.05 (FIG. 1)) does the source give for `CC(=O)N[C@@H](CS)C(=O)O` [NAC, N-acetylcysteine] here?
**A.** increased

**Q.** What about the “plasma EPO concentration (E), relative change” value (erythropoietin (EPO); before exposure to the hypoxia chamber, vs placebo-treated group, P<0.05 (FIG. 1)) of the same compound?
**A.** increased

**Q.** And the “increase in plasma EPO concentration (E) between time 1 and time 2” value (erythropoietin (EPO); before vs 5 days after start of treatment, P value <0.05 (FIG. 2))?
**A.** significantly different from that of the placebo-treated control group

**Q.** And the plasma erythropietin concentration (erythropoietin (EPO); [2])?
**A.** increase

**Q.** And the “plasma thiol concentration (T), relative change” value ([1]; P<0.01 (FIG. 1))?
**A.** significantly increased

**Q.** What about the “plasma thiol/disulfide redox status (thiol^2 disulfide^−1), relative change” value ([1]; P<0.05 (FIG. 1)) of the same compound?
**A.** increased

**Q.** What about the “increase in ventilatory activity (H, isocapnic hypoxic ventilatory response) between time 1 and time 2” value (oxygen sensors; before vs 4 days after start of treatment, P value <0.01 (FIG. 2)) of the same compound?
**A.** significantly different from that of the placebo-treated control group

**Q.** And the “isocapnic hypoxic ventilatory response (H), relative change” value (oxygen sensors; healthy male subjects, NAC three doses of 600 mg per day, vs placebo-treated group (FIG. 1))?
**A.** significantly increased

**Q.** What about the ventilatory activity (oxygen sensors; [2]) of the same compound?
**A.** increase

Reference: patent US20110237672A1, “Use of a cysteine-containing substance to increase the ventilatory activity and erythropoietin production” (2458781 CANADA INC., priority 2001, published 2011)
